Test results taken from patent publication US7012081B2, “Anthranyl amides and their use as medicaments” (Schering AG, priority 2000, dated 2006).

Key:
VEGFR II (KDR) = VEGFR II (KDR) (Homo sapiens, UniProt P35968); assay: Inhibition of the KDR kinase activity (33P-ATP / poly-(Glu4Tyr) phosphocellulose filter assay); type: biochemical; details: substrate poly-(Glu4Tyr), 10 minutes at room temperature
Procedure: • Stock solution A: 3 mmol of ATP in water, pH 7.0 (−70° C.) • Stock solution B: g-33P-ATP 1 mCi/100 μl • Stock solution C: poly-(Glu4 Tyr) 10 mg/ml in water Solution for Dilutions • Substrate solvent: 10 mmol of DTT, 10 mmol of manganese chloride, 100 mmol of magnesium chloride • Enzyme solution: 120 mmol of tris/HCl, pH 7.5, 10 μM of sodium vanadium oxide Sample Application 1 Inhibition of the KDR- and FLT-1 Kinase Activity in the Presence of the Compounds According to the Invention
In a microtiter plate (without protein binding) that tapers to a point, 10 μl of substrate mix (10 μl of volume of ATP stock solution A+25 μCi of g-33P-ATP (about 2.5 μl of stock solution B)+30 μl of poly-(Glu4Tyr) stock solution C+1.21 ml of substrate solvent), 10 μl of inhibitor solution (substances corresponding to the dilutions, 3% DMSO in substrate solvent as a control) and 10 μl of enzyme solution (11.25 μg of enzyme stock solution (KDR or FLT-1 kinase) are added at 4° C. in 1.25 ml of enzyme solution (dilute). It is thoroughly mixed and incubated for 10 minutes at room temperature. Then, 10 μl of stop solution (250 mmol of EDTA, pH 7.0) is added, mixed, and 10 μl of the solution is transferred to a P 81 phosphocellulose filter. Then, it is washed several times in 0.1 M phosphoric acid. The filter paper is dried, coated with Meltilex and measured in a microbeta counter. […]

Chain of VEGFR II (KDR) (P35968 20-1356, species assumed): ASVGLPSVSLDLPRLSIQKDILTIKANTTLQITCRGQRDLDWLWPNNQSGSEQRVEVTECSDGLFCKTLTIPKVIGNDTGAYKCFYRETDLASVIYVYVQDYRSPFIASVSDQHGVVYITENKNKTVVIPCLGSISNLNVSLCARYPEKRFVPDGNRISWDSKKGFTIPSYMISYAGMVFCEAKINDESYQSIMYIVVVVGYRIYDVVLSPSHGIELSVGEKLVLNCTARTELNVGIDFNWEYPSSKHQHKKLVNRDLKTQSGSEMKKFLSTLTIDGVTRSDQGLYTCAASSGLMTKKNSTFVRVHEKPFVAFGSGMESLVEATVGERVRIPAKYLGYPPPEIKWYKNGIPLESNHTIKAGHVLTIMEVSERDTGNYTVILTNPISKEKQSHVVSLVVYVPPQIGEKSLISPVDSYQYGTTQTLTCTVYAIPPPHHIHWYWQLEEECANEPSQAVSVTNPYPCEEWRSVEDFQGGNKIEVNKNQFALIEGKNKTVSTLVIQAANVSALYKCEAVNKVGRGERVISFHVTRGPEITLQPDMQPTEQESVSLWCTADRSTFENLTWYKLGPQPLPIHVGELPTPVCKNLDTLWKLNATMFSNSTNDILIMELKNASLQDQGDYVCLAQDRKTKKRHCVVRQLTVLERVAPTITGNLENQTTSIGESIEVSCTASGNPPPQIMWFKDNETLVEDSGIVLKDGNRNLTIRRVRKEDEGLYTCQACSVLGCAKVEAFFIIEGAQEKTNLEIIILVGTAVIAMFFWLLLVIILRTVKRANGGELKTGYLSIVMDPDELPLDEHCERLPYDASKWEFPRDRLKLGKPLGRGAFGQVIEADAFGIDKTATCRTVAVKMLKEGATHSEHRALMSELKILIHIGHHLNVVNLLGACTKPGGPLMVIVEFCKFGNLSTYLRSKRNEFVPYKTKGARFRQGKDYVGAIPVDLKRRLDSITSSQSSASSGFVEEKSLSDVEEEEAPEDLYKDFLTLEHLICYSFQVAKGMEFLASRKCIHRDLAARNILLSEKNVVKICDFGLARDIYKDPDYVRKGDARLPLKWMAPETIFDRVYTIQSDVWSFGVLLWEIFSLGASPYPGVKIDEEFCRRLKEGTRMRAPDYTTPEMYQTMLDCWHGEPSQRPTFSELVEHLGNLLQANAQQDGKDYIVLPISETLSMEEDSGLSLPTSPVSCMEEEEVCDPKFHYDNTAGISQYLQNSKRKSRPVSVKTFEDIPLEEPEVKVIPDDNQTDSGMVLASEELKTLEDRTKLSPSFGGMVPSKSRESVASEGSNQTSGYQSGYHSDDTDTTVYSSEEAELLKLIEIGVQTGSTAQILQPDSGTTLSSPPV

Row | IC50 (VEGFR II (KDR)) [nM] | melting point [°C] | Compound
1 | 50 | 140.4 | O=C(Nc1cc2ccccc2cn1)c1ccccc1NCC1CCOCC1 [Example 1.1]
2 | 20 |  | O=C1CCC(CNc2ccccc2C(=O)Nc2cc3ccccc3cn2)CC1 [Example 2.0]
